The results in this text go back to patent publication US8124624B2, “Substituted sulfonamide compounds” (Gruenenthal GmbH, priority 2008, dated 2012).

The term inhibition denotes the change of the read-out against control, counted positive when it falls.

The target in one assay is T1, human B1R (Homo sapiens, UniProt P46663).
T1 construct: expressed in transfected cells; host or cells: CHO K1 cells (hB1R cells)
T1 sequence (P46663 1-353): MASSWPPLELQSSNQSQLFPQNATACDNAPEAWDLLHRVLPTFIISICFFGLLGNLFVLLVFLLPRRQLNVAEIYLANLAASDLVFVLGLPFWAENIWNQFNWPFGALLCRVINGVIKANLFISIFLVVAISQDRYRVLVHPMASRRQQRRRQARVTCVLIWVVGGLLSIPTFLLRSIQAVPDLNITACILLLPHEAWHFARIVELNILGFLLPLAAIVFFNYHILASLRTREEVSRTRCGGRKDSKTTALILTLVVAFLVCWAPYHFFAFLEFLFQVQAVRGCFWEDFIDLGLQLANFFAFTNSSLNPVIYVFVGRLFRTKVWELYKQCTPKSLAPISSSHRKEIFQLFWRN
As to the kind of experiment: FLIPR Ca2+ influx assay, B1R antagonism, human (hB1R CHO K1 cells). The settings on record: test substance 10 μM, CHO K1 cells stably transfected with human B1R, agonist Lys-Des-Arg9-bradykinin at EC80, % inhibition compared with maximum achievable inhibition; for inhibition at 10 µM: read-out: B1R antagonism, human [10 μM] % inhibition. Format: cell-based. The gist of the method:
(§1)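 CHO K1 cells stably expressing human or rat B1R were loaded with Fluo-4, and Ca^2+ fluorescence was read on a FLIPR. After 10–20 min with test substance, agonist was added at EC80: Lys-Des-Arg^9-bradykinin for hB1R, Des-Arg^9-bradykinin for rB1R. % inhibition is relative to maximal inhibition; IC50 from multiple concentrations, n=2–3, N≥2.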

Another assay deals with T2, B1R of the rat (Rattus norvegicus, UniProt P97583).
T2 construct: expressed in transfected cells; host or cells: CHO K1 cells (rB1R cells)
T2 sequence (P97583 1-337): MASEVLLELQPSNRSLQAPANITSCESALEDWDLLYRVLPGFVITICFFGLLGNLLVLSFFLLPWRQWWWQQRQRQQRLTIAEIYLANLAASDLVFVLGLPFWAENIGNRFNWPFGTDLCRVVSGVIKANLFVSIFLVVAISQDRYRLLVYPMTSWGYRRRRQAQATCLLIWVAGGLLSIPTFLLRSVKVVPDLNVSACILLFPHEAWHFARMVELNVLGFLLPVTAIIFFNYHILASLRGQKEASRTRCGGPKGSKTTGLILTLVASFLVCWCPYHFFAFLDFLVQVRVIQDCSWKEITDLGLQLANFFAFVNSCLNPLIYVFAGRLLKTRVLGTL
As to the kind of experiment: FLIPR Ca2+ influx assay, B1R antagonism, rat (rB1R CHO K1 cells). Format: cell-based. To be noted: test substance 10 μM, CHO K1 cells stably transfected with rat B1R, agonist Des-Arg9-bradykinin at EC80, % inhibition compared with maximum achievable inhibition; for inhibition at 10 µM: read-out: B1R antagonism, rat [10 μM] % inhibition. The gist of the method: as §1

`COc1cc(C)c(S(=O)(=O)N(C)CCOCC(=O)N2CCC(CCCN3CCCC3)(c3cccnc3)CC2)c(C)c1` [Example 29, 4-Methoxy-N,2,6-trimethyl-N-[2-[2-oxo-2-[4-pyridin-3-yl-4-(3-pyrrolidin-1-yl-propyl)-piperidin-1-yl]-ethoxy]-ethyl]-benzenesulfonic acid amide]: on human B1R, the “B1R antagonism, human [10 μM] % inhibition” value was determined as 100%. For the same molecule, at B1R of the rat, the “B1R antagonism, rat [10 μM] % inhibition” value turned out to be 101%.

As for `COc1cc(C)c(S(=O)(=O)N(C)CCOCC(=O)N2CCC(CCCN3CCCC3)(c3cccnc3)CC2)c(C)c1C` [Example 31, 4-Methoxy-N,2,3,6-tetramethyl-N-[2-[2-oxo-2-[4-pyridin-3-yl-4-(3-pyrrolidin-1-yl-propyl)-piperidin-1-yl]-ethoxy]-ethyl]-benzenesulfonic acid amide], the inhibition at 10 µM on human B1R came out at 100%; on B1R of the rat, 101%.

With `COc1cc(C)c(S(=O)(=O)N(CCOCC(=O)N2CCC(CCCN3CCCC3)(c3cccnc3)CC2)Cc2ccccc2)c(C)c1` [Example 37, N-Benzyl-4-Methoxy-2,6-dimethyl-N-[2-[2-oxo-2-[4-pyridin-3-yl-4-(3-pyrrolidin-1-yl-propyl)-piperidin-1-yl]-ethoxy]-ethyl]-benzenesulfonic acid amide], the results for the inhibition at 10 µM on human B1R and at B1R of the rat were 100% and 103%, respectively.

As to `COc1cc(C)c(S(=O)(=O)N(CCOCC(=O)N2CCC(CCCN3CCCC3)(c3cccnc3)CC2)Cc2ccccc2)c(C)c1` [Example 38, N-Benzyl-4-Methoxy-2,6-dimethyl-N-[2-[2-oxo-2-[4-pyridin-3-yl-4-(3-pyrrolidin-1-yl-propyl)-piperidin-1-yl]-ethoxy]-ethyl]-benzenesulfonic acid amide], at human B1R, the “B1R antagonism, human [10 μM] % inhibition” value is on record as 100%. Moreover, at B1R of the rat, the “B1R antagonism, rat [10 μM] % inhibition” value came out at 101%.

As for `O=C(COCC1CCCCN1S(=O)(=O)c1ccccc1C(F)(F)F)N1CCC(CCCN2CCCC2)(c2cccnc2)CC1` (stereo not drawn) [Example 41, 1-[4-Pyridin-3-yl-4-(3-pyrrolidin-1-yl-propyl)-piperidin-1-yl]-2-[[1-[[2-(trifluoromethyl)-phenyl]sulfonyl]-piperidin-2-yl]-methoxy]-ethanone], the inhibition at 10 µM came out at 100% on human B1R and 104% on B1R of the rat.

Regarding `O=C(COCC1CCCCN1S(=O)(=O)c1ccccc1C(F)(F)F)N1CCC(CCCN2CCCC2)(c2cccnc2)CC1` (stereo not drawn) [Example 42, 1-[4-Pyridin-3-yl-4-(3-pyrrolidin-1-yl-propyl)-piperidin-1-yl]-2-[[1-[[2-(trifluoromethyl)-phenyl]sulfonyl]-piperidin-2-yl]-methoxy]-ethanone], the “B1R antagonism, human [10 μM] % inhibition” value on human B1R is 100%. Also, the “B1R antagonism, rat [10 μM] % inhibition” value at B1R of the rat was 102%.

In the case of `COc1cc(C)c(S(=O)(=O)N(CCOCC(=O)N2CCC(CCCN3CCCC3)(c3cccnc3)CC2)c2ccccc2)c(C)c1` [Example 48, 4-Methoxy-2,6-Dimethyl-N-[2-[2-oxo-2-[4-pyridin-3-yl-4-(3-pyrrolidin-1-yl-propyl)-piperidin-1-yl]-ethoxy]-ethyl]-N-phenyl-benzenesulfonic acid amide], the inhibition at 10 µM was determined as 100% on human B1R and 103% on B1R of the rat.

On to `COc1cc(C)c(S(=O)(=O)N2c3ccccc3CCC2COCC(=O)N2CCC(CCCN3CCCC3)(c3cccnc3)CC2)c(C)c1` (stereo not drawn) [Example 53, 2-[[1-[(4-Methoxy-2,6-dimethyl-phenyl)sulfonyl]-1,2,3,4-tetrahydro-quinolin-2-yl]-methoxy]-1-[4-pyridin-3-yl-4-(3-pyrrolidin-1-yl-propyl)-piperidin-1-yl]-ethanone], for which the inhibition at 10 µM at human B1R amounted to 100%; at B1R of the rat, 102%.

Turning to `COc1cc(C)c(S(=O)(=O)N2CCCCC2CCCC(=O)N2CCC(CCCN3CCCC3)(c3cccnc3)CC2)c(C)c1` (stereo not drawn) [Example 60, 4-[1-[(4-Methoxy-2,6-dimethyl-phenyl)sulfonyl]-piperidin-2-yl]-1-[4-pyridin-3-yl-4-(3-pyrrolidin-1-yl-propyl)-piperidin-1-yl]-butan-1-one], the inhibition at 10 µM was determined as 100% on human B1R and 104% on B1R of the rat.

Take `COc1cc(C)c(S(=O)(=O)N2CCCCC2CCCC(=O)N2CCC(CCCN3CCCC3)(c3cccnc3)CC2)c(C)c1` (stereo not drawn) [Example 61, 4-[1-[(4-Methoxy-2,6-dimethyl-phenyl)sulfonyl]-piperidin-2-yl]-1-[4-pyridin-3-yl-4-(3-pyrrolidin-1-yl-propyl)-piperidin-1-yl]-butan-1-one]: at human B1R, the “B1R antagonism, human [10 μM] % inhibition” value stood at 100%. The “B1R antagonism, rat [10 μM] % inhibition” value on B1R of the rat was 103%.

Take `COc1cc(C)c(S(=O)(=O)N2c3ccccc3OCC2COCC(=O)N2CCC(CCCN3CCCC3)(c3cccnc3)CC2)c(C)c1` (stereo not drawn) [Example 67, 2-[[4-[(4-Methoxy-2,6-dimethyl-phenyl)sulfonyl]-3,4-dihydro-2H-[1,4]benzoxazin-3-yl]-methoxy]-1-[4-pyridin-3-yl-4-(3-pyrrolidin-1-yl-propyl)-piperidin-1-yl]-ethanone]: the figures for the inhibition at 10 µM on human B1R and at B1R of the rat were 100% and 102%, respectively.

With `COc1cc(C)c(S(=O)(=O)N2c3ccccc3OCC2COCC(=O)N2CCC(CCCN3CCCC3)(c3cccnc3)CC2)c(C)c1` (stereo not drawn) [Example 68, 2-[[4-[(4-Methoxy-2,6-dimethyl-phenyl)sulfonyl]-3,4-dihydro-2H-[1,4]benzoxazin-3-yl]-methoxy]-1-[4-pyridin-3-yl-4-(3-pyrrolidin-1-yl-propyl)-piperidin-1-yl]-ethanone], the “B1R antagonism, human [10 μM] % inhibition” value on human B1R was found to be 100%. Further, at B1R of the rat, the “B1R antagonism, rat [10 μM] % inhibition” value is given as 101%.

For `COc1cc(C)c(S(=O)(=O)N(CCOCC(=O)N2CCC(CCCN3CCCC3)(c3cccnc3)CC2)Cc2cnc3ccccc3c2)c(C)c1` [Example 71, 4-Methoxy-2,6-Dimethyl-N-[2-[2-oxo-2-[4-pyridin-3-yl-4-(3-pyrrolidin-1-yl-propyl)-piperidin-1-yl]-ethoxy]-ethyl]-N-(quinolin-3-yl-methyl)-benzenesulfonic acid amide], the inhibition at 10 µM at human B1R was 100%; on B1R of the rat, 103%.

For `Cc1cccc(Cl)c1S(=O)(=O)N1c2ccccc2OCC1COCC(=O)N1CCC(CCCN2CCCC2)(c2cccnc2)CC1` (stereo not drawn) [Example 72, 2-[[4-[(2-Chloro-6-methyl-phenyl)sulfonyl]-3,4-dihydro-2H-[1,4]benzoxazin-3-yl]-methoxy]-1-[4-pyridin-3-yl-4-(3-pyrrolidin-1-yl-propyl)-piperidin-1-yl]-ethanone], the values for the inhibition at 10 µM at human B1R and on B1R of the rat were 100% and 103%, respectively.

As for `O=C(COCC1COc2ccccc2N1S(=O)(=O)c1ccccc1C(F)(F)F)N1CCC(CCCN2CCCC2)(c2cccnc2)CC1` (stereo not drawn) [Example 74, 1-[4-Pyridin-3-yl-4-(3-pyrrolidin-1-yl-propyl)-piperidin-1-yl]-2-[[4-[[2-(trifluoromethyl)-phenyl]sulfonyl]-3,4-dihydro-2H-[1,4]benzoxazin-3-yl]-methoxy]-ethanone], the inhibition at 10 µM on human B1R stood at 100%. For the same molecule, the “B1R antagonism, rat [10 μM] % inhibition” value at B1R of the rat was determined as 93%.

`Cc1cccc(Cl)c1S(=O)(=O)N(CCOCC(=O)N1CCC(CCCN2CCCC2)(c2cccc(Cl)c2)CC1)C1CC1` [Example 77, 2-Chloro-N-[2-[2-[4-(3-chlorophenyl)-4-(3-pyrrolidin-1-yl-propyl)-piperidin-1-yl]-2-oxo-ethoxy]-ethyl]-N-cyclopropyl-6-methyl-benzenesulfonic acid amide]: the values for the inhibition at 10 µM on human B1R and at B1R of the rat were 100% and 92%, respectively.

For `Cc1cccc(Cl)c1S(=O)(=O)N(CCOCC(=O)N1CCC(CCCN2CCCC2)(c2cccc(C(F)(F)F)c2)CC1)C1CC1` [Example 78, 2-Chloro-N-cyclopropyl-6-methyl-N-[2-[2-oxo-2-[4-(3-pyrrolidin-1-yl-propyl)-4-[3-(trifluoromethyl)phenyl]-piperidin-1-yl]-ethoxy]-ethyl]-benzenesulfonic acid amide], the inhibition at 10 µM worked out at 97% on human B1R and 92% on B1R of the rat.

As for `Cc1cccc(Cl)c1S(=O)(=O)N(CCOCC(=O)N1CCC(CCCN2CCCC2)(c2cccc(F)c2)CC1)C1CC1` [Example 79, 2-Chloro-N-cyclopropyl-N-[2-[2-[4-(3-fluorophenyl)-4-(3-pyrrolidin-1-yl-propyl)-piperidin-1-yl]-2-oxo-ethoxy]-ethyl]-6-methyl-benzenesulfonic acid amide], the inhibition at 10 µM stood at 100% at human B1R and 103% at B1R of the rat.
